Where two headings read alike, the source gives them in different places.
Tests used:
[1] = system: MDA-MB-231 Human breast adenocarcinoma cells; conditions: for Cell Survival (% of Control; mean ± S.D.): 24-hour exposure, 24 h post end of exposure
[2] = system: isolated mitochondria of H460 cells; experiment: Oxygen consumption in isolated mitochondria, Seahorse XF24; format: biochemical; conditions: 4° C. for three hours
[3] = system: BxPC-3, DU 145, PC-3 and MDA-MB-231; experiment: Cell proliferation assay, all cell lines tested; conditions: low dose level 5 μg/mL
Protocol: Cell Proliferation assay: for each cell line, cell suspensions ranging in concentration of approximately 2-5×10^5 cells/mL of growth medium were prepared. 1 mL of each of these suspensions was aseptically transferred to a sterile tissue culture flask (12.5 or 25 cm^2) containing fresh growth medium. Three flasks (triplicate) were used for each group, and for each time point of viable cell number/mL measurement at 1, 3 and 5 days post-treatment (9 dishes per group in total). The cells were incubated and allowed to adhere to the bottom of the flasks and proliferate.
After approximately 24 hours of exposure to treatments, dosing media was replaced with fresh growth media and cells were returned to the incubator and allowed to proliferate.
Assessment of Cell Proliferation: For each cell line, measurement of viable cell number/mL was performed as already described above. This measurement was performed in triplicate from three flasks per group, at 1, 3 and 5 days post-removal of treatment.

Plasmodium falciparum = experiment: ATP levels in the Plasmodium parasite, luciferin/luciferase assay
[4] = MDA-MB-231, 24 h post end of 24-hour exposure
[5] = spinosad 10 μg/mL, succinate substrate
[6] = spinosad 20 μg/mL, succinate substrate
[7] = spinosad 40 μg/mL, succinate substrate
[8] = spinosad 80 μg/mL, succinate substrate

Spinosad
Calculated LC50 [1, 4]: 13.4 µg/mL
Calculated LC100 [1, 4]: 36.7 µg/mL
Cell Survival (% of Control; mean ± S.D.) ([1]; MDA-MB-231, spinosad 10 μg/mL): 56.1 ± 13.7 % of Control
Cell Survival (% of Control; mean ± S.D.) ([1]; MDA-MB-231, spinosad 20 μg/mL): 38.0 ± 5.7 % of Control
Cell Survival (% of Control; mean ± S.D.) ([1]; MDA-MB-231, spinosad 30 μg/mL): 13.2 ± 1.4 % of Control
ADP stimulation ([2]; 20 μg of spinosad): slight increase
spinosad concentration above which mitochondrial integrity is reduced ([2]; succinate substrate): above 40 μg/mL
State III respiration (numerator of RCR) [2, 5]: 711
State IV respiration (denominator of RCR) [2, 5]: 300
State III respiration (numerator of RCR) [2, 6]: 726
State IV respiration (denominator of RCR) [2, 6]: 330
State III respiration (numerator of RCR) [2, 7]: 666
State IV respiration (denominator of RCR) [2, 7]: 430
State III respiration (numerator of RCR) [2, 8]: 598
State IV respiration (denominator of RCR) [2, 8]: 500
cell number doubling time from 3 days post-treatment increased by [3]: 27.8-33.2%
ATP levels in the parasite (Plasmodium falciparum; albumin-containing medium (RPMI-1640), within erythrocytes and after isolation, spinosad 5-10 μg/ml in DMSO): reduces
ATP levels in the parasite (Plasmodium falciparum; isolated parasites in saline/spinosad medium (absence of albumin)): unaffected
